From patent publication US9925179B2, “Combination therapy for mental disorders” (priority 2014, dated 2018)
Several values for one entry are separate records, joined by “and”; a condition that tells them apart may be missing. Identical values can stand only once.

How the values were obtained:
[1] = tested on: BP-II patients; experiment: Symptom severity (HDRS, YMRS) in 12-week randomized double-blind placebo-controlled add-on trial; assay type: in vivo, human; settings: for Within group change (baseline minus endpoint) HDRS, Mean ± SD / Within group change (baseline minus endpoint) YMRS, Mean ± SD: BP-II patients, add-on to valproic acid, 12-week follow-up; for HDRS, difference versus placebo, B (standardized coefficient) / YMRS, difference versus placebo, B (standardized coefficient): GEE, treatment group x treatment duration interaction, placebo as reference, controlling for age, gender, treatment duration
Source text: (§1) 250˜300 male and female BP-II patients (18˜65 years old) were recruited, from the Department of Psychiatry at National Cheng Kung University Hospital and Tri-Service General Hospital into a 12-week treatment. The research protocol was examined for approval by the Institutional Review Board for the Protection of Human Subjects at National Cheng Kung University Hospital and Tri-Service General Hospital. All participants were given a complete description of the study and were asked to sign an informed consent before the study began. Patients who had major, mental illnesses other than BP-II and who had taken memantine or DM within 1 week before the first dose of the double-blind medication were excluded. The Chinese Version of Modified Schedule of Affective Disorder and Schizophrenia-Life Time (SADS-L) will be conducted for confirmation of the diagnosis. […] After each patient had been diagnosed based on DSM-IV criteria by a senior psychiatrist and confirmed by a clinical psychologist using a structured interview, SADS-L, the severity of each patient's clinical symptoms was assessed using the 17-item Hamilton Rating Scale for Depression (HRSD) and the Young Mania Rating Scale (YMRS). All the patients at Screen who score 18 on the HRSD or 14 on the YMRS were recruited. Eligible patients were randomly assigned into four treatment groups (n=40-45 for each group) in a double-blind manner and all groups matched in demographic characteristics, symptom severity, while they received open-label valproic acid (VPA) treatment (500 mg and 1000 mg daily [[…] in plasma]): 1) DM (30 mg/day), 2) memantine (5 mg/day), 3) combination of DM and memantine (30 mg/day DM and 5 mg/day memantine), and 4) placebo respectively for 12 weeks. Patients were randomized into 4 groups through a computer-generated randomization table to receive placebo or any of active treatments in a 1:1:1:1 ratio. The patients with side-effect intolerance or clinical worsening were withdrawn earlier.
Efficacy will be assessed by the YMRS, HDRS and Side-Effects.
Clinical ratings were performed by research psychiatric professionals who were well-trained and experienced in the rating scales. All assessments were blind to treatment assignment and completed at baseline and at the end of week 1, 2, 4, 8 and 12. Routine laboratory tests, including CBC and biochemistry were checked at baseline and the end of week 12.
(2) Young Mania Rating Scale (YMRS) and 17-item Hamilton Depression Rating Scale (HDRS)
Those clinically suspected of having a mood disorder were invited to be interviewed with the Chinese version SADS-L and diagnosed as having BP-II. The severity of current symptoms was assessed by using the YMRS and HDRS. The diagnosis of a mood disorder was made according to DSM-IV criteria, except for BP-II, for which we used a 2-day instead of a 4-day duration for hypomania.
(§2) The intent to-treat (ITT) analysis set included all randomized patients who received at least one dose of study drug, and had one baseline assessment and at least one after baseline. All the outcome variables were analyzed in the ITT set, including HDRS, YMRS, cytokine levels, plasma BDNF levels and metabolic parameters; missing data was filled in using the last observation carried forward (LOCF) method.
(§3) The overall within-group changes of each outcome over the 12 weeks were analyzed by paired sample t-test. To compare the difference in outcomes of add-on medication (DM30, MM5, and DM30+MM5) versus placebo, generalized estimating equation (GEE) was adopted. A total of 10 models ran with each outcome as a dependent variable. In each model, add-on medication received (DM30, MM5, and DM30+MM5 vs. controls), treatment duration, treatment received X treatment duration, gender, and age were included as independent variables. The covariance structure employed was autoregressive (AR(1)) model. The placebo group was used as reference group. […]

[2] = tested on: TNF-α; experiment: Plasma TNF-α by ELISA in 12-week add-on trial; assay type: in vivo, human; settings: for Within group change (baseline minus endpoint) TNF-α, Mean ± SD: BP-II patients, plasma, add-on to valproic acid, 12-week follow-up; for TNF-α, difference versus placebo, B (standardized coefficient): GEE interaction term, placebo as reference, controlling for age, gender, treatment duration, HDRS and YMRS
Source text: as §1
Serum levels of DM, memantine, plasma BDNF, and cytokines were measured. […] Plasma BDNF, CRP, TNF-α, were measured at baseline, 1, 2, 4, 8 and 12 weeks and quantified using the enzyme-linked immunosorbent assays (ELISAs). Cytokine levels were quantified using an antibody pair assay system (Flexia; BioSource Intl., Camarillo, Calif.). […]
(§4) Symptom severity, immunological parameters (plasma tumor necrosis factor α (TNF-α) and C-reactive protein (CRP)) and plasma brain derived neurotrophic factor (BDNF) were examined regularly. Metabolic profiles (cholesterol, triglyceride, HbA1C, fasting serum glucose, body mass index [BMI]) were measured at baseline and 2, 8, and 12 weeks. […]
(§5) The overall within-group changes of each outcome over the 12 weeks were analyzed by paired sample t-test. […]

[3] = tested on: CRP; experiment: Plasma CRP by ELISA in 12-week add-on trial; assay type: in vivo, human; settings: for Within group change (baseline minus endpoint) CRP, Mean ± SD: BP-II patients, plasma, add-on to valproic acid, 12-week follow-up; for CRP, difference versus placebo, B (standardized coefficient): GEE interaction term, placebo as reference, controlling for age, gender, treatment duration, HDRS and YMRS
[4] = tested on: BDNF; experiment: Plasma BDNF by ELISA in 12-week add-on trial; assay type: in vivo, human; settings: for Within group change (baseline minus endpoint) BDNF, Mean ± SD: BP-II patients, plasma, add-on to valproic acid, 12-week follow-up; for BDNF, difference versus placebo, B (standardized coefficient): GEE interaction term, placebo as reference, controlling for age, gender, treatment duration, HDRS and YMRS
Source text: as §1
Serum levels of DM, memantine, plasma BDNF, and cytokines were measured. […] of whole blood was drawn and collected from the antecubital vein. Plasma were isolated from the whole blood after the 3000 g centrifugation at 4° C. for 15 min and stored at −80° C. immediately. Plasma BDNF, CRP, TNF-α, were measured at baseline, 1, 2, 4, 8 and 12 weeks and quantified using the enzyme-linked immunosorbent assays (ELISAs). Cytokine levels were quantified using an antibody pair assay system (Flexia; BioSource Intl., Camarillo, Calif.). Sample processing and data analysis were done according to the manufacturer's instructions. The low limit sensitivity was 0.126 pg/ml, 0.057 pg/ml, and 20 pg/ml for TNF-α, IL-1β, and BDNF respectively. Finally, HPLC with UV detector and therapeutic drug monitoring (TDM) was used to measure the plasma DM and VPA level respectively.
as §4, with “weeks. Concomitant benzodiazepine medication (lorazepam <8 mg) was used for nighttime sedation, and to treat agitation and insomnia during the study.” for “weeks.”
as §5

[5] = Metabolic profiles (cholesterol, HDL-C, LDL-C, triglyceride, glucose) in 12-week add-on trial; assay type: in vivo, human; settings: for Within group change (baseline minus endpoint) Glucose, Mean ± SD / Within group change (baseline minus endpoint) HDL-C, Mean ± SD / Within group change (baseline minus endpoint) LDL-C, Mean ± SD / Within group change (baseline minus endpoint) Total cholesterol, Mean ± SD / Within group change (baseline minus endpoint) Triglyceride, Mean ± SD: BP-II patients, add-on to valproic acid, 12-week follow-up; for Glucose, difference versus placebo, B (standardized coefficient) / HDL-C, difference versus placebo, B (standardized coefficient) / LDL-C, difference versus placebo, B (standardized coefficient) / Total Cholesterol, difference versus placebo, B (standardized coefficient) / Triglyceride, difference versus placebo, B (standardized coefficient): GEE interaction term, placebo as reference, controlling for age, gender, treatment duration, HDRS and YMRS
Source text: as §1
Symptom severity, immunological parameters (plasma tumor necrosis factor α (TNF-α) and C-reactive protein (CRP)) and plasma brain derived neurotrophic factor (BDNF) were examined regularly. Metabolic profiles (cholesterol, triglyceride, HbA1C, fasting serum glucose, body mass index [BMI]) were measured at baseline and 2, 8, and 12 weeks. Concomitant benzodiazepine medication (lorazepam <8 mg) was used for nighttime sedation, and to treat agitation and insomnia during the study. Up to 20 mg/daily of fluoxetine was permitted for associated depressive symptoms.
as §2
as §3, with “group. The interaction term of treatment received X treatment duration was regarded as effect of add-on DM30, MM5, and DM30+MM5. To analyze correlations between cytokines, BDNF and metabolic profiles, GEE analysis was used as well.” for “group.”

[6] = Example 2: 4-week clinical trial of dextromethorphan added on to depakine, cholesterol and LDL; assay type: in vivo, human; settings: 30 mg/day added on to depakine
Procedure: This example was a clinical trial for the treatment of bipolar II disorder using 30 mg/day of dextromethorphan (off label use) adding on to depakine (plasma level […]). 44 patients with bipolar II disorder were recruited, and change of cholesterol was monitored only over 4 weeks.

[7] = cited from earlier work
[8] = tested on: BP-II patients; experiment: Side effects / discontinuation in 12-week add-on trial; assay type: in vivo, human; settings: 12-week trial, n=66 in group
Source text: 250˜300 male and female BP-II patients (18˜65 years old) were recruited, from the Department of Psychiatry at National Cheng Kung University Hospital and Tri-Service General Hospital into a 12-week treatment. The research protocol was examined for approval by the Institutional Review Board for the Protection of Human Subjects at National Cheng Kung University Hospital and Tri-Service General Hospital. All participants were given a complete description of the study and were asked to sign an informed consent before the study began. Patients who had major, mental illnesses other than BP-II and who had taken memantine or DM within 1 week before the first dose of the double-blind medication were excluded. […] After each patient had been diagnosed based on DSM-IV criteria by a senior psychiatrist and confirmed by a clinical psychologist using a structured interview, SADS-L, the severity of each patient's clinical symptoms was assessed using the 17-item Hamilton Rating Scale for Depression (HRSD) and the Young Mania Rating Scale (YMRS). […]
The severity of side effects was evaluated by using the Chinese version of Side-Effects Checklist which derived from Psychiatric Rating and Diagnostic Instruments (TRIMS, 1972) and included 7 categories as follows: 1) Mental Status; 2) Genito-Urinary; 3) Cardiovascular; 4) Head-Neck; 5) Extremities; 6) Skin; 7) Gastrointestinal. […]

[9] = tested on: opioid addictive behavior; settings: rat, 0.2 mg/kg (1/100 dosage); cited from earlier work

| Compound | Within group change (baseline minus endpoint) HDRS, Mean ± SD [1] | Within group change (baseline minus endpoint) YMRS, Mean ± SD [1] | HDRS, difference versus placebo, B (standardized coefficient) [1] | YMRS, difference versus placebo, B (standardized coefficient) [1] | Within group change (baseline minus endpoint) TNF-α, Mean ± SD [2] [pg/mL] | TNF-α, difference versus placebo, B (standardized coefficient) [2] | Within group change (baseline minus endpoint) CRP, Mean ± SD [3] [ng/mL] | CRP, difference versus placebo, B (standardized coefficient) [3] | Within group change (baseline minus endpoint) BDNF, Mean ± SD [4] [ng/mL] | BDNF, difference versus placebo, B (standardized coefficient) [4] | Within group change (baseline minus endpoint) Glucose, Mean ± SD [5] [mg/dL] | Within group change (baseline minus endpoint) HDL-C, Mean ± SD [5] [mg/dL] | Within group change (baseline minus endpoint) LDL-C, Mean ± SD [5] [mg/dL] | Within group change (baseline minus endpoint) Total cholesterol, Mean ± SD [5] [mg/dL] | Within group change (baseline minus endpoint) Triglyceride, Mean ± SD [5] [mg/dL] | Glucose, difference versus placebo, B (standardized coefficient) [5] | HDL-C, difference versus placebo, B (standardized coefficient) [5] | LDL-C, difference versus placebo, B (standardized coefficient) [5] | Total Cholesterol, difference versus placebo, B (standardized coefficient) [5] | Triglyceride, difference versus placebo, B (standardized coefficient) [5] | further results |
| --- | --- | --- | --- | --- | --- | --- | --- | --- | --- | --- | --- | --- | --- | --- | --- | --- | --- | --- | --- | --- | --- |
| COc1ccc2c(c1)[C@]13CCCC[C@@H]1[C@H](C2)N(C)CC3 [DM30, dextromethorphan] | 6.4 ± 4.7 | 4.7 ± 3.4 | −1.38 | −1.00 | 0.1 ± 2.5 | −0.04 | 10.9 ± 1290.3 | 0.05 | -2.3 ± 8.3 | 2.94 | 9.0 ± 38.1 | 1.6 ± 10.2 | -0.9 ± 23.1 | -0.1 ± 28.7 | -11.6 ± 168.4 | −5.33 | 0.79 | 8.80 | 6.95 | 28.08 | BDNF level, within group change, in words ([4]; after 12 weeks of treatment): Significant improved; cholesterol and LDL in human, in words ([6]; 4 weeks): decreased; low density lipid protein (LDL), first value (before treatment) ([6]; 44 bipolar II patients): 127.70 ± 34.24 mg/dL; total cholesterol, first value (before treatment) ([6]; 44 bipolar II patients): 194.70 ± 39.49 mg/dL; total cholesterol over 4-week of treatment, second value ([6]; 44 bipolar II patients, P=0.09): 186.16 ± 37.95 mg/dL; low density lipid protein (LDL) over 4-week of treatment, second value ([6]; 44 bipolar II patients, P=0.13): 120.84 ± 34.013 mg/dL; plasma levels of DM ([7]; BP patients, U.S. Pat. No. 8,785,472): 5 to 100 ng/mL; plasma DM concentrations ([7]; patients taking 30-60 mg/70 kg of DM, listed as DM): 10-30 ng/ml and 28-84 nM |
| CC12CC3CC(C)(C1)CC(N)(C3)C2 [MM5, memantine] | 6.3 ± 4.9 | 4.6 ± 3.9 | −1.33 | −0.98 | 0.3 ± 1.8 | −0.15 | -12.6 ± 1269.4 | 0.09 | 0.3 ± 7.6 | 0.02 | -3.3 ± 22.6 | 2.4 ± 8.7 | 2.6 ± 22.0 | 0.5 ± 24.5 | -10.7 ± 38.7 | 7.63 | −0.07 | 4.45 | 3.14 | 8.81 | patients discontinuing with poor tolerance to a side effect (dizziness) [8]: One; opioid addictive behavior by conditioned place preference, in words [9]: effective |
